Reference: ChEMBL document CHEMBL1743141, “Membrane transporters in drug development” (Nat Rev Drug Discov, 2010)

Legend:
Assay type in all cases: ADME
[1] = target: T1, Multidrug and toxin extrusion protein 1 (Homo sapiens, UniProt Q96FL8); test: Substrates of transporters of clinical importance in the absorption and disposition of drugs, MATE1
T1 sequence (Q96FL8 whole entry): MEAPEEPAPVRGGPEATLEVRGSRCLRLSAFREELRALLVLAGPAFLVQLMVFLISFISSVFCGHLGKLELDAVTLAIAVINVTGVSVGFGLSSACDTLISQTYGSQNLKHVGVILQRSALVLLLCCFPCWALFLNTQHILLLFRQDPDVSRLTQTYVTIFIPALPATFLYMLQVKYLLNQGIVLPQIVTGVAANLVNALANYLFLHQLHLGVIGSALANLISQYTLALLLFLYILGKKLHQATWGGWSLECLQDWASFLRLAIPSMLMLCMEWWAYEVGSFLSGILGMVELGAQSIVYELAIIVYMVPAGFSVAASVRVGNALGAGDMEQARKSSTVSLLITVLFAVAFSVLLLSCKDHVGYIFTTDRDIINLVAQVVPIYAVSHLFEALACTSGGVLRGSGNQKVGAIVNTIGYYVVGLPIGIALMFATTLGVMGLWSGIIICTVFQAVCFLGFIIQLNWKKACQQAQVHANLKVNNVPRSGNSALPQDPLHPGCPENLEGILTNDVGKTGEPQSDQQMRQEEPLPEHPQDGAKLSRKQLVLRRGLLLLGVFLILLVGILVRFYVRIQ

[2] = target: T2, Multidrug and toxin extrusion protein 2 (Homo sapiens, UniProt Q86VL8); test: Substrates of transporters of clinical importance in the absorption and disposition of drugs, MATE2-K
T2 sequence (Q86VL8 whole entry): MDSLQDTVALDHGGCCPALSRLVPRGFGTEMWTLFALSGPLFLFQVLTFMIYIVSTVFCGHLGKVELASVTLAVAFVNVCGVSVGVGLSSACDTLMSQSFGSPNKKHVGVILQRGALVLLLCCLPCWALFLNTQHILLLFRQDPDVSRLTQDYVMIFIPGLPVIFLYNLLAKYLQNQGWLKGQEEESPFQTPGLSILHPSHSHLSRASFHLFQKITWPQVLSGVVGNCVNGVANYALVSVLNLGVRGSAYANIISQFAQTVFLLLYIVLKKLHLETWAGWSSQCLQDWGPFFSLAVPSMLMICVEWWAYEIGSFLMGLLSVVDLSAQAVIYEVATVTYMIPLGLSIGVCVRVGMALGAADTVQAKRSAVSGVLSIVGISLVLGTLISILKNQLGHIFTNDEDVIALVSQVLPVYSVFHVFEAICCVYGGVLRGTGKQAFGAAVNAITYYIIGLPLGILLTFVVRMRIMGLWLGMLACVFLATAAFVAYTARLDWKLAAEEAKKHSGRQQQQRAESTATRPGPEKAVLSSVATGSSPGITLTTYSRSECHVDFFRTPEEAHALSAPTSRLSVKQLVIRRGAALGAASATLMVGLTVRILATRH

[3] = target: T3, Solute carrier family 22 member 1 (Homo sapiens, UniProt O15245); test: Substrates of transporters of clinical importance in the absorption and disposition of drugs, OCT1
T3 sequence (O15245 whole entry): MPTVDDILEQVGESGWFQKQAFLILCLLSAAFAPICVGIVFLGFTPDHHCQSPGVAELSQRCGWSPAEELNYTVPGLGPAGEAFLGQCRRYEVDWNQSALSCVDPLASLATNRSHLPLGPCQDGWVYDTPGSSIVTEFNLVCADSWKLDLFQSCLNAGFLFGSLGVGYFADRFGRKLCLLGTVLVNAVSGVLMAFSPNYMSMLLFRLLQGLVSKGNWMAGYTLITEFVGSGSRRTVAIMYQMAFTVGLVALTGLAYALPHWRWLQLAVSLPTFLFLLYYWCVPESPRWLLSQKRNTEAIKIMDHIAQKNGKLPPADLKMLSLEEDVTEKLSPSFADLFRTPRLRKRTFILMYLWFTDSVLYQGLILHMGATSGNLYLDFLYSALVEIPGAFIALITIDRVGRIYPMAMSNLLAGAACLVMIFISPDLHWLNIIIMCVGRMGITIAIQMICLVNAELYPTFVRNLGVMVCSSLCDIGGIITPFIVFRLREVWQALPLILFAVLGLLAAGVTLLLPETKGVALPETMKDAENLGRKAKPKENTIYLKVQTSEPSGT

[4] = target: T4, Solute carrier family 22 member 2 (Homo sapiens, UniProt O15244); test: Substrates of transporters of clinical importance in the absorption and disposition of drugs, OCT2
T4 sequence (O15244 whole entry): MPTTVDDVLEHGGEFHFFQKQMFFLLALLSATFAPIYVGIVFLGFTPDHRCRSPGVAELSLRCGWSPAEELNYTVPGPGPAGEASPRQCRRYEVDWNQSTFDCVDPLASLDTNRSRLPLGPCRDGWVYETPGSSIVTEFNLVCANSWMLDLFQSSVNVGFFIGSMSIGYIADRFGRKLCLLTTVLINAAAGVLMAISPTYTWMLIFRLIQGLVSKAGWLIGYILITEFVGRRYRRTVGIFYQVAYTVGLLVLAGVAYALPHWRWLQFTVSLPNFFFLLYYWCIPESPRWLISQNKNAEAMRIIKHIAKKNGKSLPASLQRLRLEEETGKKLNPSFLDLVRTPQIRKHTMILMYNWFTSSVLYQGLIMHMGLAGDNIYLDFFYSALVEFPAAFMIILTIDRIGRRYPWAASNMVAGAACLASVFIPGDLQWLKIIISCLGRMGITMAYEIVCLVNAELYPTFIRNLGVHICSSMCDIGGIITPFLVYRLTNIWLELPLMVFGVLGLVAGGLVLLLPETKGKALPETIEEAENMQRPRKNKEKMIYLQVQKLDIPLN

[5] = target: T5, Solute carrier organic anion transporter family member 1A2 (Homo sapiens, UniProt P46721); test: Inhibitors of transporters of clinical importance in the absorption and disposition of drugs, OATP1A2
T5 sequence (P46721 whole entry): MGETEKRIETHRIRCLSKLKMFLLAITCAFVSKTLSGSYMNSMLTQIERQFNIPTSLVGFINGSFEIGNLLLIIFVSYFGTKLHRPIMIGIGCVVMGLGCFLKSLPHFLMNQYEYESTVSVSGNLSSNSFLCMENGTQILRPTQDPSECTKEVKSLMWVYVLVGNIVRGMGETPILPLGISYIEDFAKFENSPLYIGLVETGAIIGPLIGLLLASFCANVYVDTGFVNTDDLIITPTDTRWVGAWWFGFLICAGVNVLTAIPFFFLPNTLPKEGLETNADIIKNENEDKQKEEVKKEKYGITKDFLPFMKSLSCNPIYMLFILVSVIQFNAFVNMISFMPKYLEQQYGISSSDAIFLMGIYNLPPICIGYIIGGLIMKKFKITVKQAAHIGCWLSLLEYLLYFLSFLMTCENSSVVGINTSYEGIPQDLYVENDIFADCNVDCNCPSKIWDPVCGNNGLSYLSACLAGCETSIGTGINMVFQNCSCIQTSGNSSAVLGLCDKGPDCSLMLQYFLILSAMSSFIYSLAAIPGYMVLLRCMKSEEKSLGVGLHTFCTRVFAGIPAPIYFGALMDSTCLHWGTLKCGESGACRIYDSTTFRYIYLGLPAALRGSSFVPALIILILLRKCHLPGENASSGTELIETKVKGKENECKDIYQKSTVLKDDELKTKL

[6] = target: T6, ATP-binding cassette sub-family C member 4 (Homo sapiens, UniProt O15439); test: Substrates of transporters of clinical importance in the absorption and disposition of drugs, MRP4
T6 sequence (O15439 whole entry): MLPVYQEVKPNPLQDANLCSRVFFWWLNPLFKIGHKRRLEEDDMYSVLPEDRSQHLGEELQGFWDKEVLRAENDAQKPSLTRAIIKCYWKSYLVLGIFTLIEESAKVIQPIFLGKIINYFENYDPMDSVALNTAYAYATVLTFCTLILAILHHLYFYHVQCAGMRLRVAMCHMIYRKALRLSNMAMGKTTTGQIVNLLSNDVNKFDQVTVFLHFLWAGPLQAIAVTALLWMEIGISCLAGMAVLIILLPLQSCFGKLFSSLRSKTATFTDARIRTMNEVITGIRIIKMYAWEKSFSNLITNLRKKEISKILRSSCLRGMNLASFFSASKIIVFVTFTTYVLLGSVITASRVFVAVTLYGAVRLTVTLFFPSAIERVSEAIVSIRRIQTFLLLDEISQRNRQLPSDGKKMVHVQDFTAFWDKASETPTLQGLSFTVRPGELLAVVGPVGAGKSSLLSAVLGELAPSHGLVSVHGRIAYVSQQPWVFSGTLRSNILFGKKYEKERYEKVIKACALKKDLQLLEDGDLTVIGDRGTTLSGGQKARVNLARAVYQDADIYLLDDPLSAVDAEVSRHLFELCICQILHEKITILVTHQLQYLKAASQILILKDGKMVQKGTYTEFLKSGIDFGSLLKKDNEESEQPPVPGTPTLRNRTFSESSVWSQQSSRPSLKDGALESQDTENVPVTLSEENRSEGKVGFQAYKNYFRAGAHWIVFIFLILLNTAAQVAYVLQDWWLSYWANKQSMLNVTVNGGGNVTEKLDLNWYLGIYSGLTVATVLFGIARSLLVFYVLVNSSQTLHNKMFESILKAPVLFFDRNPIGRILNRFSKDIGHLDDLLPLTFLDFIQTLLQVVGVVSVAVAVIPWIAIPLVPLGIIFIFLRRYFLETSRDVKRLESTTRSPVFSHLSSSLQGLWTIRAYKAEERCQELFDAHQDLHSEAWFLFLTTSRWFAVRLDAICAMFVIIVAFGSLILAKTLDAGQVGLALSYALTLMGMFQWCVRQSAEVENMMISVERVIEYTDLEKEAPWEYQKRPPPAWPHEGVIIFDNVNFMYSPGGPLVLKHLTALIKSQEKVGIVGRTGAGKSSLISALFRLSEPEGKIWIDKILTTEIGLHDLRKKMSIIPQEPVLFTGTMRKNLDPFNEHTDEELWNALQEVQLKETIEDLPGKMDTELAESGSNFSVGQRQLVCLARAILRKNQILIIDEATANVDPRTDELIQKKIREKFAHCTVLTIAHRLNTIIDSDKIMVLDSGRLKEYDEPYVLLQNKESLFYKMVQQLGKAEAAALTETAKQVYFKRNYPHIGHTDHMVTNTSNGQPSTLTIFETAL

[7] = target: T7, Broad substrate specificity ATP-binding cassette transporter ABCG2 (Homo sapiens, UniProt Q9UNQ0); test: Substrates of transporters of clinical importance in the absorption and disposition of drugs, BCRP
T7 sequence (Q9UNQ0 whole entry): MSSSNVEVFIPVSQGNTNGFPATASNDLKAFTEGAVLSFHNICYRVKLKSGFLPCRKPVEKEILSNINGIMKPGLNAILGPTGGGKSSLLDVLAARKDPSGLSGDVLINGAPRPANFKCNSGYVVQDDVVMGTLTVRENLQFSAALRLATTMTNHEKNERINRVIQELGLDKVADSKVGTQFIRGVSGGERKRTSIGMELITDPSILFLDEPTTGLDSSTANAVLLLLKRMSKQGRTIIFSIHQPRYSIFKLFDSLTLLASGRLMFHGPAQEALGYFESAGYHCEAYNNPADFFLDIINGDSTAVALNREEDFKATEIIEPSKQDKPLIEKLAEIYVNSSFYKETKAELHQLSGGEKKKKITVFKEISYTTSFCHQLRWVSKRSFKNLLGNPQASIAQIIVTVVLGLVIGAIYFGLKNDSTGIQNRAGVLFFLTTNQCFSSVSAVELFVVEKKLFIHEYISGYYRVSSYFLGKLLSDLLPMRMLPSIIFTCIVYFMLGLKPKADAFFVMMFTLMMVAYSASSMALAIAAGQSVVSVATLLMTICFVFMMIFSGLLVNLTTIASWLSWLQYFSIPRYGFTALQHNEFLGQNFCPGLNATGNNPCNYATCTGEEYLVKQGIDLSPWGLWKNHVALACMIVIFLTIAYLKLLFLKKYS

[8] = target: ATP-binding cassette sub-family C member 2 (Homo sapiens, UniProt Q92887); test: Substrates of transporters of clinical importance in the absorption and disposition of drugs, MRP2
Sequence of ATP-binding cassette sub-family C member 2 (Q92887 whole entry): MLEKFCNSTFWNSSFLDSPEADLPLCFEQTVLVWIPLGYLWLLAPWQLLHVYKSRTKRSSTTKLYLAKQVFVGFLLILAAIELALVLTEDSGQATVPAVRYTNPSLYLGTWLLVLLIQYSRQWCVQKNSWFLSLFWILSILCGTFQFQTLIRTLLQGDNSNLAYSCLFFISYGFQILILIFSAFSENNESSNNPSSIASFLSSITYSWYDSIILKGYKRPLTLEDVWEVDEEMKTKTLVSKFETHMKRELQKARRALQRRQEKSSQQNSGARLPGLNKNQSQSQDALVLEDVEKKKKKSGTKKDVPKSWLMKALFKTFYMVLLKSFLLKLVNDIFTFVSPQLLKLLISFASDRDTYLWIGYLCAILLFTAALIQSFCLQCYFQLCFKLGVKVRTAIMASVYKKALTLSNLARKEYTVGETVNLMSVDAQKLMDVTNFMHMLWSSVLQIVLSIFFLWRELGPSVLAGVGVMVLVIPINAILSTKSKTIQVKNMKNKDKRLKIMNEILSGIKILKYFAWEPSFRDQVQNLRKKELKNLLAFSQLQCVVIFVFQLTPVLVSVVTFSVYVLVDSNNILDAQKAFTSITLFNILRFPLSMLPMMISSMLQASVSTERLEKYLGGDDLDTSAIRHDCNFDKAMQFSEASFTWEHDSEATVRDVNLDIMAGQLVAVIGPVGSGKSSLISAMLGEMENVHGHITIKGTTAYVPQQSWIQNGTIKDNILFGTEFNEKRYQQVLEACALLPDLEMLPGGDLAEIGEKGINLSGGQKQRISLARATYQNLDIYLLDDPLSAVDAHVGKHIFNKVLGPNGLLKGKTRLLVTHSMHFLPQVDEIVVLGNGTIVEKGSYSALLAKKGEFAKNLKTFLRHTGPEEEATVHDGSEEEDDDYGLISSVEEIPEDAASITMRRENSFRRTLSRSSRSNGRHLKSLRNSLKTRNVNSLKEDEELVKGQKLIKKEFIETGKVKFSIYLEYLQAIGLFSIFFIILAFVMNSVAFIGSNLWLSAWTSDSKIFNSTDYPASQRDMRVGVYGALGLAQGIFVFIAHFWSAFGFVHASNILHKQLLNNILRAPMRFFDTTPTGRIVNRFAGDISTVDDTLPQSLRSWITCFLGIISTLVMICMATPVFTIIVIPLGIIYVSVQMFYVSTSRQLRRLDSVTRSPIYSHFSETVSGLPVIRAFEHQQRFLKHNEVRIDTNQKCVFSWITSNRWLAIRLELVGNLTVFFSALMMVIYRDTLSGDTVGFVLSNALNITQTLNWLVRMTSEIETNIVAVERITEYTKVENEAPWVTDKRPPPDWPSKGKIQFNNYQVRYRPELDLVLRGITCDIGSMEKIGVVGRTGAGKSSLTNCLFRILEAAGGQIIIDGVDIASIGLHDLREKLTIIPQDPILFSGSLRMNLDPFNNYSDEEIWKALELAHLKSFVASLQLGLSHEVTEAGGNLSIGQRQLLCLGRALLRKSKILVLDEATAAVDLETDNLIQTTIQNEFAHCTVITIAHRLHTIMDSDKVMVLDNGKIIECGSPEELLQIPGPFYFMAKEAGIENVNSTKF

Structure (SMILES)	Activity [3]	Activity [4]	Activity [5]	Activity [6]	Activity [1]	Activity [2]	Activity [7]	Activity [8]
CN(C)C(=N)N=C(N)N [METFORMIN]	transporter substrate	transporter substrate			transporter substrate	transporter substrate		
C[C@@H]1O[C@@H](O[C@H]2[C@H](Oc3cc(O)c4c(c3)O[C@H](c3ccc(O)cc3)CC4=O)O[C@H](CO)[C@@H](O)[C@@H]2O)[C@H](O)[C@H](O)[C@H]1O [NARINGIN]			transporter inhibitor					
C[n+]1ccccc1	transporter substrate	transporter substrate			transporter substrate	transporter substrate		
O=C1c2c(O)ccc(O)c2C(=O)c2c(NCCNCCO)ccc(NCCNCCO)c21 [MITOXANTRONE]							transporter substrate	transporter substrate

More lines, main results first:

Activity [3]	Activity [4]	Activity [5]	Activity [6]	Structure (SMILES)	Activity [1]	Activity [2]	Activity [7]	Activity [8]
transporter substrate	transporter substrate			CC[N+](CC)(CC)CC [TETRYLAMMONIUM]	transporter substrate	transporter substrate		
			transporter substrate	CC[C@@]1(O)C(=O)OCc2c1cc1n(c2=O)Cc2cc3c(CN(C)C)c(O)ccc3nc2-1 [TOPOTECAN]			transporter substrate	
